Data: US8703215B2, “Agents from Ficus hispida for the amelioration of metabolic syndrome and related diseases” (Laila Nutraceuticals, priority 2009, dated 2014)

Columns and labels:
[1] = system: human cancer cells; settings: small panel of human cancer cells; cited from earlier work
[2] = Serum LDL in high fat diet induced obese rats; format: in vivo, Sprague-Dawley rats; settings: 7 mg/kg, 8 weeks
Excerpt: (§1) Induction: Selected healthy Sprague-Dawley rats were randomly assigned to control or various treatment groups (n=7). All the animals allocated to the obesity study were made experimentally obese through dietary intervention during the entire eight weeks induction period by feeding high fat diet ad libitum containing Bengal gram 32 g, Wheat floor 15 g, Yeast 1 g, Butter 2 g, Ground nut oil 8 g, Casein 5 g, Vanaspathi 20 g, Vitamin mix 05 g, Milk powder 12 g and Mineral Salt mixture 4.5 g per 100 g of high fat diet.
(§2) Treatment: Following 8 weeks of induction phase, the animals were treated orally (using oral feeding gavage) with either of the allocated test substances or vehicle daily for 8 weeks. The animals of treatment groups were supplemented with 100 mg/kg body weight of LI/PD/044B/03 or 250 mg/kg body weight of LI/PD/044B/03 or 7 mg/kg body weight of sibutramine in 10 mL of 0.5% CMC in water for further 8 weeks. The control group of animals received only the vehicle (10 mL of 0.5% CMC in water) during this period. During the treatment phase, all animals were provided with the standard rodent diet till the end of the study.
Serum LDL concentration: The serum LDL levels in animals supplemented with different Treatments and control were estimated on Human Biochemistry Analyzer (German) and the results are summarized in FIG. 7B.

[3] = system: adiponectin; assay: Serum adiponectin in high fat diet induced obese rats (ELISA); format: in vivo, Sprague-Dawley rats; settings: 7 mg/kg daily, 8 weeks
Excerpt: as §1, §2
Estimation of Biomarker Adiponectin: The serum adiponectin concentration for the control and treatment groups of animals were assessed using double antibody based sandwich rat adiponectin ELISA kit. […]

[4] = Body weight gain in high fat diet induced obesity model of Sprague-Dawley rats; format: in vivo; settings: 7 mg/kg oral daily, 8 weeks
Excerpt: as §1
Treatment: Following 8 weeks of induction phase, the animals were treated orally (using oral feeding gavage) with either of the allocated test substances or vehicle daily for 8 weeks. […]
Body weights: Body weight of individual animal was recorded weekly during the entire duration of the study. Mean body weights for the treatment groups and control group were determined. The body weight gain was calculated at the end of 1st week, 4th week and 8th week after initiation of treatment in comparison to initial body weights. The percentage reduction in weight gain in the treatment groups was then calculated by comparing the weight gain in each treatment with that of control group. […]

Row | Molecule | cytotoxic activity [1] | serum LDL concentrations [2] | improvement in serum adiponectin concentration vs baseline [3] | reduction in body weight gain vs control group [4]
1 | COc1ccc2c3c(c4cc(OC)c(OC)cc4c2c1)CN1CCCC1C3O (centres unmarked) [O-Methyltylophorinidine] | potent cytotoxic activity | – | – | –
2 | CC(C)CC(N(C)C)C1(c2ccc(Cl)cc2)CCC1 (centres unmarked) [sibutramine] | – | significant reduction | 6.3% | 40%
3 | ficustriol | inactive | – | – | –
